Test results taken from PubChem BioAssay (NCI).
Several values for one entry are separate records, joined by “and”; a condition that tells them apart may be missing. Identical values can stand only once.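 Interpolation was linear, between the two tested concentrations surrounding the appropriate level; five concentrations were tested over 48 hours in 96-well plates. At the GI50, growth is halved. Definition used: TGI = concentration required for complete inhibition of growth.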

How the values were obtained:
Experiment in all cases: NCI tumour cell line growth inhibition, 48 h
[1] = tested on: HCC-2998 colon
[2] = tested on: HT29 colon
[3] = tested on: IGROV1 ovarian
[4] = tested on: MCF7 breast
[5] = tested on: NCI/ADR-RES ovarian
[6] = tested on: OVCAR-4 ovarian
[7] = tested on: SK-OV-3 ovarian
[8] = tested on: UACC-257 melanoma
[9] = tested on: SR leukemia
[10] = tested on: UO-31 renal

SMILES | TGI [1] | TGI [2] | TGI [3] | TGI [4] | TGI [5] | TGI [6] | TGI [7] | TGI [8] | TGI [9] | TGI [10] | GI50 [1] | GI50 [3] | GI50 [6] | GI50 [7] | GI50 [8] | GI50 [2] | GI50 [9] | GI50 [10] | GI50 [5]
CCCCCCCCCC/C=C/CC(=O)SCCNC(=O)CCNC(=O)[C@@H](O)C(C)(C)COP(=O)(O)OP(=O)(O)OCC1OC(n2cnc3c(N)ncnc32)C(O)C1OP(=O)(O)O (some centres undefined) | > 10 µM | > 10 µM | > 10 µM | > 10 µM | > 10 µM | > 10 µM | > 10 µM | > 10 µM |  |  |  |  |  |  |  |  |  |  | 
CC1OC(n2cc(F)c(=O)[nH]c2=O)C=CC1O (centres undefined) | > 100 µM | > 100 µM | > 100 µM |  |  | > 100 µM | > 100 µM | > 100 µM | > 100 µM | > 100 µM |  |  |  |  |  |  |  |  | 
Cc1ccc(S(=O)(=O)NCC2CCCCC2=O)cc1 (centres undefined) |  | > 100 µM | > 100 µM |  |  | > 100 µM | > 100 µM | 57.7 µM |  | > 100 µM |  |  |  |  |  |  |  |  | 
CCOP(=O)(Cc1ccc(CP(=O)(OCC)OCC)n1C)OCC | > 100 µM | > 100 µM | > 100 µM |  |  | > 100 µM | > 100 µM | > 100 µM |  | > 100 µM |  |  |  |  |  |  |  |  | 
CCOC(=O)Oc1c(OC)cc(C(=O)NC2CCc3cc(OC)c(OC)c(OC)c3-c3ccc(SC)c(=O)cc32)cc1OC (centres undefined) | 0.187 µM and 0.039 µM | 0.489 µM | > 70 µM |  |  | > 70 µM | 0.466 µM and 0.0553 µM | > 70 µM | < 0.007 µM | > 70 µM | 0.0156 µM | < 0.007 µM | 14.8 µM | 0.00717 µM | < 0.007 µM |  |  |  | 
CC(C)(C)OC(=O)NCC(=O)OCc1ccccc1 | > 100 µM | > 100 µM | > 100 µM |  |  |  | > 100 µM | > 100 µM |  | > 100 µM |  |  |  |  |  |  |  |  | 
O=[n+]1c2c(n([O-])c3ccccc31)CCCCCCCCCC2 |  | > 100 µM | > 100 µM |  |  |  | > 100 µM | > 100 µM | > 100 µM | > 100 µM |  |  |  |  |  |  |  |  | 
CC(=O)O.CC(=O)O.CC(=O)O.CC(=O)O.CC(=O)O.CC(=O)O.O.[Ti].[Ti] | > 100 µM | > 100 µM | > 100 µM |  |  | > 100 µM |  | > 100 µM | > 100 µM | > 100 µM | > 100 µM | > 100 µM | > 100 µM |  | > 100 µM | > 100 µM | > 100 µM | > 100 µM | 
CC1=Nc2ccccc2C1C(Cc1ccccc1N)c1c(C)[nH]c2ccccc12 (centres undefined) | 30.2 µM | 33.1 µM | 36 µM |  |  |  | 53.3 µM | 32.4 µM | 50.3 µM | 31.8 µM |  |  |  |  |  |  |  |  | 
O=C1c2ccccc2C2(Br)C(=O)c3ccccc3C12 (centres undefined) | > 100 µM | > 100 µM | > 100 µM |  |  | > 100 µM | > 100 µM | > 100 µM |  | > 100 µM |  |  |  |  |  |  |  |  | 
O=[N+]([O-])c1nccn1CC(O)c1ccc(F)cc1 (centres undefined) |  | > 100 µM | > 100 µM |  |  | > 100 µM | > 100 µM | > 100 µM |  | > 100 µM |  |  |  |  |  |  |  |  | 
O=C(O)CNc1cc(-c2ccccc2)nc(NCC(=O)O)n1 | > 100 µM | > 100 µM | > 100 µM |  |  | > 100 µM | > 100 µM | > 100 µM | > 100 µM | > 100 µM |  |  |  |  |  |  |  |  | 
CNC(=S)NC1CCCCC1NC(=S)NC (centres undefined) | > 100 µM | > 100 µM | > 100 µM |  |  | > 100 µM | > 100 µM |  | > 100 µM | > 100 µM |  |  |  |  |  |  |  |  | 
COC(=O)C(C(=O)C(=O)Nc1cccc(OC)c1)c1cnc2ccccc2n1 (centres undefined) | > 100 µM | > 100 µM | > 100 µM |  |  | > 100 µM | > 100 µM | > 100 µM | > 100 µM | > 100 µM |  |  |  |  |  |  |  |  | 
O=C(Nc1nc2ncn(CCI)c2c(=O)[nH]1)c1ccccc1 | > 100 µM | > 100 µM | > 100 µM |  |  | > 100 µM | 90.5 µM | > 100 µM | > 100 µM | > 100 µM |  |  |  |  |  |  |  |  | 
O=S(O)CCCCSSCC(O)C(O)CSSCCCCS(=O)O (centres undefined) |  | 24.4 µM and 27 µM | > 100 µM |  |  | 19.9 µM and 23.8 µM | > 100 µM | 21.6 µM and 26.7 µM |  | 67.3 µM and 79.5 µM |  |  |  |  |  |  |  |  | 
CCC[CH2][Sn]([CH2]CCC)([CH2]CCC)[O]C(=O)CC | 0.316 µM | 0.322 µM | 0.397 µM |  | > 100 µM | 0.26 µM | 0.296 µM | 0.296 µM |  | 0.314 µM | 0.171 µM | 0.167 µM | 0.125 µM | 0.143 µM | 0.145 µM | 0.13 µM |  | 0.15 µM | 0.37 µM
CS(=O)(=O)N/N=C/CN1C(=O)c2ccccc2C1=O | > 100 µM | > 100 µM | > 100 µM |  |  | > 100 µM | > 100 µM | > 100 µM | > 100 µM | > 100 µM |  |  |  |  |  |  |  |  | 
